According to patent US20120178147A1, “MICROBIAL CULTURES AND METHODS FOR ANAEROBIC BIOREMEDIATION” (priority 2009, published 2012):

Tested on: sediment microcosms
Assay: Effect of TCC, TCS and BES on TCE dechlorination in sediment microcosms and cultures derived from them
Type: cell-based
Procedure: In this study, microcosm is defined as: anaerobic airtight serum bottles with sediment samples, anaerobic medium, electron donor, and a chlorinated compound used as an electron acceptor. Four microcosms were set up in the anaerobic glove chamber with H2 concentration of 3% (Coy laboratory products Inc. Grass Lake, Mich.). Ten gram of homogeneously mixed sediment from either core A or core D were transferred independently into a 160 ml sterile serum bottle, and 90 ml anaerobic media with vitamin solution and 2 mM lactate were added. One hundred μL of 20 mg/L TCC stock solution in methanol and 100 μL of 20 mg/L TCS stock solution were added by pipette (Eppendorf, Calif.) to two of the four microcosms. Microcosms were capped with thick black butyl rubber stoppers and aluminum crimps. 4.5 μL pure TCE was injected with airtight syringe (Hamilton Company, Reno, Nev.) into each serum bottle. On day 130, in order to inhibit methane production in the sediment microcosms, 25 mM BES was added in to sediment-A microcosm and sediment-D microcosm with TCC and TCS with airtight syringe (Hamilton Company, Reno, Nev.). Microcosms were stored in the dark and incubated at 30° C.
Production of Sediment-Free Cultures. To establish sediment-free cultures from core A and core D sediment microcosms, the microcosms were shaken vigorously, and the solids were allowed to settle down. Then, using 1-inch, 21-gauge sterile needles, […] liquid (10 ml) were transferred into 89 ml sterile medium with the following contents: anaerobic medium, ATCC vitamin mix, and vitamin B12, in 160-ml serum bottles. Then, 1 ml each of 500-mM lactate stock solution and 35-μL TCE stock solution (1 mol/L in methanol) were added to form a 100 ml culture in 160-ml serum bottle. Three sediment cultures were derived from each sediment microcosm, and 12 sediment-free cultures were produced (FIG. 1). For organizational purposes, we refer to the sediment-free cultures generated from sediment-A microcosms as SCA and the sediment free cultures generated from sediment-D microcosms as DehaloR̂2, in the figures herein, the DehaloR̂2 are referred to as “SCD”. Thus, the term “SCD” and DehaloR̂2 are used interchangeably herein as the composition “SCD” was renamed “DehaloR̂2” during the course of investigation. The sediment-free cultures were kept in the dark and incubated at 30° C. After all the chlorinated electron acceptors were consumed, the cultures were re-spiked with TCE and electron donors.
BES (2-bromoethanesulfonate) is an efficient inhibitor for the metabolism of methanogens in methanogenetic cultures because it is a structural analog and competitive inhibitor of coenzyme M, which is only found in methanogens (Dimarco et al., 1990; Sparling and Daniels, 1987). Different concentrations of BES have been used by researchers. […] In this study, in order to determine if the cause for incomplete reductive dechlorination was competition for electron donor between methanogens and TCE dechlorinating microorganisms in the microcosms, I added 25 mM BES, 70 μmol of TCE, and 5 mM lactate into two sediment microcosms, sediment-A and sediment-D with TCC and TCS. In two other sediment microcosms, I added 70 μmol of TCE and 5 mM lactate without BES.

Question: Which results are given for `O=S(=O)(O)CCBr` [BES, 2-bromoethanesulfonic acid]?
Answer: effect on TCE reductive dechlorination (25 mM BES): exerted some inhibition on TCE reductive dechlorination; methane production (25 mM BES, two sediment microcosms): no methane was produced; effect on TCE dechlorination rates in sediment-free cultures (cultures from microcosms amended with TCC, TCS, BES): slow down TCE dechlorination rates
